By IC50 is commonly meant the concentration that gives 50% inhibition. Higher therefore signals a need for much substance. A word on the clearance: it is the rate of elimination divided by the concentration. Higher therefore signals a high capacity for elimination. One may read the Kd as the equilibrium constant for the complex coming apart. Read a high Kd as weaker binding. In general, bioavailability refers to the share of a dose that reaches the circulation, judged against a reference dose that is usually intravenous. Lower therefore signals poor availability. One may read the solubility as how much of the substance goes into solution per volume. A lower solubility goes with little dissolved substance.

Converted amounts (≈) assume the structure as drawn.

Data set [1] deals with T1, Serine/threonine-protein kinase TNNI3K (Homo sapiens, UniProt Q59H18).
T1 sequence (Q59H18 whole entry): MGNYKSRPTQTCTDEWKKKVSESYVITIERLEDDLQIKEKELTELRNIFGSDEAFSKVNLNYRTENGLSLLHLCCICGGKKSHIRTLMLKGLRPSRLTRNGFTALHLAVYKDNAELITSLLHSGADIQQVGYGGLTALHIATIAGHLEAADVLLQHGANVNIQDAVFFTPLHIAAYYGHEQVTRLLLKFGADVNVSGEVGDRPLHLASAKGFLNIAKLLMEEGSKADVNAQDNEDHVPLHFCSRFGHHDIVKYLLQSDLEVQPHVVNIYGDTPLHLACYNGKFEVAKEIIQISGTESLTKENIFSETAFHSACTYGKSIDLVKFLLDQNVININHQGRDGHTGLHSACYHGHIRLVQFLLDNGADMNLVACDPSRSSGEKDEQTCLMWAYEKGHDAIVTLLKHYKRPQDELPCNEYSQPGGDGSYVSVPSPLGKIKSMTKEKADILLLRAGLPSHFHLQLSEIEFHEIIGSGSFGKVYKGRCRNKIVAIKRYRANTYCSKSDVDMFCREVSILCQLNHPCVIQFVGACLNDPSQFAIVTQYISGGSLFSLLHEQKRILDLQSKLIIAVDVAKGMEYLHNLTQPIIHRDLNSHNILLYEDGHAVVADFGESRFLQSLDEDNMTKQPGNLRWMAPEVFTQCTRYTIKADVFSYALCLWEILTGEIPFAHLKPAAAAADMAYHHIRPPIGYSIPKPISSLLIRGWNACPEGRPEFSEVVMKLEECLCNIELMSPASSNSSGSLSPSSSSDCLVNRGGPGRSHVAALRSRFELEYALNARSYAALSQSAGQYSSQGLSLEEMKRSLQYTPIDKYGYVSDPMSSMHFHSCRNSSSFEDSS
Put plainly: Inhibition of human myc-tagged TNNI3K autophosphorylation overexpressed in HEKMSRII cells preincubated for 30 mins followed by pervanadate solution addition measured after 20 mins by DELFIA. Type of data set: cell-based.

In another data set the test system is Rattus norvegicus. Put plainly: Dose normalized AUC in po dosed Sprague-Dawley rat by LC/MS/MS analysis. It is filed as ADME, organism-based. The following applies: in vivo.
For data set [2], the target named is Serine/threonine-protein kinase B-raf (Homo sapiens, UniProt P15056, V600E). The data set is described as follows: Inhibition of His6-tagged full length BRAF V600E mutant (2 to 766 residues) (unknown origin) expressed in Baculovirus expression system by BRAMA method.
Data set [3] can be described thus: Plasma clearance in Sprague-Dawley rat at 1 mg/kg, iv by LC/MS/MS analysis. It is filed as ADME, organism-based.
Data set [4] addresses T1, Serine/threonine-protein kinase TNNI3K. The data set is described as follows: Displacement of 5-({[2-({[3-({4-[(5-hydroxy-2-methylphenyl)amino]-2-pyrimidinyl}amino)phenyl]carbonyl}amino)-ethyl]amino}carbonyl)-2-(6-hydroxy-3-oxo-3H-xanthen-9-yl)benzoic acid from His6-MBP-TEV-full length human TNNI3K expressed in Baculovirus expression system after 60 mins by fluorescence polarization assay. (In general: Polarisation of emitted light reports the rotation of a fluorescent probe.)

Data set [5] has the same target. Put plainly: Binding affinity to TNNI3K (unknown origin).
A short description of data set [6]: Volume of distribution at steady state in Sprague-Dawley rat by LC/MS/MS analysis. Type of data set: ADME, organism-based. The note with it: in vivo, read-out: Vdss.
A short description of data set [7]: Oral bioavailability in Sprague-Dawley rat by LC/MS/MS analysis. Type of data set: ADME, organism-based. The following applies: in vivo.
Data set [8] is described as follows: Aqueous solubility of the compound. It is filed as physicochemical.

Sequence of Serine/threonine-protein kinase B-raf (P15056 2-766 V600E limits assumed): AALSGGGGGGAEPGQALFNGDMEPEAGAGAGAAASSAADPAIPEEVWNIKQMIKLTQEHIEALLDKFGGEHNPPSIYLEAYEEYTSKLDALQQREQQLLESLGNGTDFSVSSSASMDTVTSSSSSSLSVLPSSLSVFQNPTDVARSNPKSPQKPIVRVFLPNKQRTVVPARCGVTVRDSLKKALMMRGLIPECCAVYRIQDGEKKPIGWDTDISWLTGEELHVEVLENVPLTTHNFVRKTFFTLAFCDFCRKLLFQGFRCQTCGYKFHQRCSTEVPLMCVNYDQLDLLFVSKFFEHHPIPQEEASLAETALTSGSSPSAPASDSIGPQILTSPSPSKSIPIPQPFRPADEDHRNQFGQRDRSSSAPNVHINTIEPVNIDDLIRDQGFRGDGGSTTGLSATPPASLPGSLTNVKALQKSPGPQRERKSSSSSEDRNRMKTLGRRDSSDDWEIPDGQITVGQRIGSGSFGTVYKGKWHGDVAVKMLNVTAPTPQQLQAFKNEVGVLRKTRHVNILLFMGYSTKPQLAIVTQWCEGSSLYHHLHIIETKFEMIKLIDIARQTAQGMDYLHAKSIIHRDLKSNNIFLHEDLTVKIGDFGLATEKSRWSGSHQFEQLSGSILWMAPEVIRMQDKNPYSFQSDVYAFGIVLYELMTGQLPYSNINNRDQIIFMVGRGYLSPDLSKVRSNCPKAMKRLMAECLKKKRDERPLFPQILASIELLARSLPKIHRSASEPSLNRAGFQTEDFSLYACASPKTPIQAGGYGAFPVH

Consider `CNS(=O)(=O)c1ccc(N2CCOCC2)c(Nc2ncnc3[nH]ccc23)c1`, for which the values for the IC50 in data set [1], in [2] and in data set [4] were 100 nM, 8 nM and 40 nM, respectively. In the data set with Rattus norvegicus, this compound had an AUC/dose of 0.15 kg·h/L. This compound also gave a clearance in data set [3] of 39 mL/min/kg.

On to `CNS(=O)(=O)c1cccc(Nc2ncnc3[nH]cnc23)c1`, for which, in the data set on Rattus norvegicus, the AUC/dose was determined as 0 kg·h/L. Also, the IC50 in [2] came out at 32 nM; in data set [4], 500 nM. In data set [5], the Kd came to 111 nM.

In turn, `CNS(=O)(=O)c1cccc(Nc2ncnc3[nH]cc(-c4ccc(Cl)cc4)c23)c1` displayed an AUC/dose in the data set with Rattus norvegicus of 0.2 kg·h/L. For the same compound, the IC50 in [2] was 4 nM; in [4] it was 100 nM. This compound came in with a clearance in data set [3] of 65 mL/min/kg.

As for `CNS(=O)(=O)c1cccc(Nc2ncnc3[nH]cc(-c4ccccc4)c23)c1`, the AUC/dose in the data set on Rattus norvegicus turned out to be 0.05 kg·h/L. Further, the results for the IC50 in data set [2] and in data set [4] were 4 nM and 40 nM, respectively. In addition, the clearance in [3] was 93 mL/min/kg.

Consider `CNS(=O)(=O)c1cccc(Nc2ncnc3[nH]cc(Br)c23)c1`, for which, in the data set on Rattus norvegicus, the AUC/dose amounted to 0.55 kg·h/L. The values for the IC50 in [2] and in data set [4] were 5 nM and 32 nM, respectively. In addition, the clearance in [3] was 23 mL/min/kg. Moreover, the Vd in data set [6] came out at 0.63 L/kg.

`CNS(=O)(=O)c1cccc(Nc2ncnc3[nH]ncc23)c1`: the clearance in data set [3] stood at 72 mL/min/kg. This compound gave a bioavailability in data set [7] of 5%. Besides, the IC50 in data set [4] worked out at 50 nM.

In the data set with Rattus norvegicus, `CNS(=O)(=O)c1cccc(Nc2ncnc3[nH]ccc23)c1` showed an AUC/dose of 0.08 kg·h/L. The IC50 turned out to be 50 nM in [2] and 80 nM in data set [4]. In data set [3], this compound yielded a clearance of 68 mL/min/kg. In [7], this compound had a bioavailability of 34%. In data set [6], the Vd stood at 1.4 L/kg. Also, the solubility in [8] was 50 µM (≈ 15.2 µg/mL).

Consider `CNS(=O)(=O)c1cccc(Nc2ncnc3[nH]cc(Cl)c23)c1`, for which, in the data set with Rattus norvegicus, the AUC/dose came to 0.39 kg·h/L. Also, the IC50 in data set [2] was 13 nM; in data set [4], 32 nM. The compound also gave a clearance in data set [3] of 20 mL/min/kg. Also, the Vd in data set [6] was determined as 0.45 L/kg.

Regarding `CNS(=O)(=O)c1ccc(N(C)C)c(Nc2ncnc3[nH]ccc23)c1`, the IC50 was determined as 50 nM in data set [1], 6 nM in data set [2] and 50 nM in data set [4]. Besides, in the data set with Rattus norvegicus, the AUC/dose was 0.59 kg·h/L. This compound came in with a clearance in data set [3] of 30 mL/min/kg. In data set [7], this compound had a bioavailability of 100%. Moreover, the concentration in solution in data set [8] (solubility) came to 330 µM (≈ 114 µg/mL).

The values above are taken from ChEMBL document CHEMBL3611990, “Identification of Purines and 7-Deazapurines as Potent and Selective Type I Inhibitors of Troponin I-Interacting Kinase (TNNI3K)” (J Med Chem, 2015).
